This note sets out measurements from patent US9233979B2, “Compounds that are ERK inhibitors” (Merck Sharp & Dohme Corp., priority 2012, dated 2016).

SMILES strings stand for the structures.

In the test the target is phosphorylated active hERK2 enzyme (Homo sapiens (Human), UniProt P28482). Description: Active Human ERK2 (hERK2) Activity Assay (IMAP-FP). In kind it is biochemical. The conditions noted are these: Table 6, 0.5 nM hERK2, 30 μM ATP, 10 point titration, read-out: AERK2 IC50. In outline: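 IMAP fluorescence-polarization kinase assay: 0.5 nM activated hERK2 with 900 nM unlabeled plus 80 nM labeled peptide and 30 μM ATP, reacted 60 min. Quenched with IMAP beads in binding buffer with 24 mM NaCl; FP read after 60 min equilibration.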
phosphorylated active hERK2 enzyme, sequence (P28482 whole entry): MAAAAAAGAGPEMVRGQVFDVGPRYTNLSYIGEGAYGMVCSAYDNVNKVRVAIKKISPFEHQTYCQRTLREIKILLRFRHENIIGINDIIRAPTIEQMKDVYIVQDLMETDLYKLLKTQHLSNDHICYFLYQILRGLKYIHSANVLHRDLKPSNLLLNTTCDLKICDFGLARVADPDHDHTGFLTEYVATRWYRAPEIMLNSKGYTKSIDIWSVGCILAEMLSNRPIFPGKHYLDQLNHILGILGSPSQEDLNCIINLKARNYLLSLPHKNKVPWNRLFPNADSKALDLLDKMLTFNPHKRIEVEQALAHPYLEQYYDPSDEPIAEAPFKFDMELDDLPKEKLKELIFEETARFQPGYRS

`C[C@@H](NC(=O)Nc1cc2[nH]nc(N3CCc4ncsc4C3)c2cn1)c1ccccc1` [Example 123, 1-[3-(6,7-dihydro[1,3]thiazolo-[5,4-c]pyridin-5(4H)-yl)-1H-pyrazolo[4,3-c]pyridin-6-yl]-3-[(1R)-1-phenylethyl]urea]: the half-maximal inhibitory concentration (IC50) turned out to be 0.4 nM.

In the case of `CC(C)(O)[C@@H](NC(=O)Nc1cc2[nH]nc(N3CCc4ncsc4C3)c2cn1)c1ccccc1` [Example 124, 1-[3-(6,7-dihydro[1,3]thiazolo-[5,4-c]pyridin-5(4H)-yl)-1H-pyrazolo[4,3-c]pyridin-6-yl]-3-[(1S)-2-hydroxy-2-methyl-1-phenylpropyl]urea], the 50% inhibitory concentration (IC50) amounted to 0.3 nM.

For the compound `CC(C)(O)[C@@H](NC(=O)Nc1cc2[nH]nc(N3CCc4ncsc4C3)c2cn1)c1ccc(F)cc1` [Example 125, 1-[3-(6,7-dihydro[1,3]thiazolo-[5,4-c]pyridin-5(4H)-yl)-1H-pyrazolo[4,3-c]pyridin-6-yl]-3-[(1S)-1-(4-fluorophenyl)-2-hydroxy-2-methylpropyl]urea], the IC50 turned out to be 0.4 nM.

On to `Cn1cc2c(n1)CCN(c1n[nH]c3cc(NC(=O)N[C@@H](c4ccc(F)cc4)C(C)(C)O)ncc13)C2` [Example 126, 1-[(1S)-1-(4-fluorophenyl)-2-hydroxy-2-methylpropyl]-3-(2′-methyl-2,′4,′6,′7′-tetrahydro-1H-3,5′-bipyrazolo[4,3-c]pyridin-6-yl)urea], for which the IC50 worked out at 0.2 nM.

Consider `COC[C@@H](NC(=O)Nc1cc2[nH]nc(N3CCc4ncsc4C3)c2cn1)c1ccccc1` [Example 127, 1-[3-(6,7-dihydro[1,3]-thiazolo[5,4-c]-pyridin-5(4H)-yl)-1H-pyrazolo[4,3-c]pyridin-6-yl]-3-[(1S)-2-methoxy-1-phenylethyl]urea], for which the IC50 was 0.3 nM.

Turning to `C[C@@H](NC(=O)Nc1cc2[nH]nc(NC(=O)N3CC(F)(F)C3)c2cn1)c1ccc(F)cc1` [Example 128, 3,3-difluoro-N-[6-({[(1R)-1-(4-fluorophenyl)ethyl]carbamoyl}amino)-1H-pyrazolo[4,3-c]pyridin-3-yl]-azetidine-1-carboxamide], the IC50 was 3.4 nM.

As for `CC(C)(O)[C@@H](NC(=O)Nc1cc2[nH]nc(NC(=O)N3CC(F)(F)C3)c2cn1)c1ccc(F)cc1` [Example 129, 3,3-difluoro-N-[6-({[(1S)-1-(4-fluorophenyl)-2-hydroxy-2-methylpropyl]-carbamoyl}amino)-1H-pyrazolo[4,3-c]pyridin-3-yl]-azetidine-1-carboxamide], the half-maximal inhibitory concentration (IC50) stood at 0.4 nM.

`CC(C)(O)[C@@H](NC(=O)Nc1cc2[nH]nc(NC(=O)N3CCC3)c2cn1)c1ccc(F)cc1` [Example 130, N-[6-({[(1S)-1-(4-fluorophenyl)-2-hydroxy-2-methylpropyl]-carbamoyl}amino)-1H-pyrazolo[4,3-c]pyridin-3-yl]-azetidine-1-carboxamide]: the 50% inhibitory concentration (IC50) amounted to 0.5 nM.

Consider `CC(C)(O)[C@@H](NC(=O)Nc1cc2[nH]nc(NC(=O)N3CCC(F)(F)C3)c2cn1)c1ccc(F)cc1` [Example 131, 3,3-difluoro-N-[6-({[(1S)-1-(4-fluorophenyl)-2-hydroxy-2-methylpropyl}-carbamoyl}amino)-1H-pyrazolo[4,3-c]pyridin-3-yl]-pyrrolidine-1-carboxamide], for which the half-maximal inhibitory concentration (IC50) stood at 1.5 nM.

For the compound `CC(C)(O)[C@@H](NC(=O)Nc1cc2[nH]nc(NC(=O)N3CCC(F)(F)CC3)c2cn1)c1ccc(F)cc1` [Example 132, 4,4-difluoro-N-[6-({[(1S)-1-(4-fluorophenyl)-2-hydroxy-2-methylpropyl]-carbamoyl}amino)-1H-pyrazolo[4,3-c]pyridin-3-yl]-piperidine-1-carboxamide], the half-inhibitory concentration (IC50) was determined as 4.9 nM.

`CC(C)(O)[C@@H](NC(=O)Nc1cc2[nH]nc(NC(=O)N3CCOCC3)c2cn1)c1ccc(F)cc1` [Example 133, N-[6-({[(1S)-1-(4-fluorophenyl)-2-hydroxy-2-methylpropyl]-carbamoyl}amino)-1H-pyrazolo[4,3-c]pyridin-3-yl]-morpholine-4-carboxamide]: the IC50 was determined as 2.4 nM.

In the case of `C[C@@H](NC(=O)Nc1cc2[nH]nc(NC(=O)N3CC(C)(O)C3)c2cn1)c1ccccc1` [Example 134, 3-hydroxy-3-methyl-N-[6-({[(1R)-1-phenylethyl]-carbamoyl}-amino)-1H-pyrazolo[4,3-c]pyridin-3-yl]-azetidine-1-carboxamide], the half-inhibitory concentration (IC50) was 8.6 nM.

On to `CCNc1n[nH]c2c(C(F)(F)F)c(NC(=O)N[C@H](C)c3ccccc3)ncc12` [Example 135, (R)-1-(3-(ethylamino)-7-(trifluoromethyl)-1H-pyrazolo[4,3-c]pyridin-6-yl)-3-(1-phenylethyl)urea], for which the IC50 was 382 nM.

Take `C[C@@H](NC(=O)Nc1cc2[nH]nc3c2c(n1)CCN3)c1ccccc1` [Example 136, (R)-1-(1-phenylethyl)-3-(1,3,4,5-tetrahydropyrazolo[3,4,5-de][1,6]naphthyridin-7-yl)urea]: the 50% inhibitory concentration (IC50) worked out at 12.2 nM.

For the compound `CC(C)(O)[C@@H](NC(=O)Nc1cc2[nH]nc3c2c(n1)CCN3)c1ccccc1` [Example 137, (S)-1-(2-hydroxy-2-methyl-1-phenylpropyl)-3-(1,3,4,5-tetrahydropyrazolo[3,4,5-de][1,6]naphthyridin-7-yl)urea], the IC50 was 1.3 nM.

As to `C[C@@H]1Cc2nc(NC(=O)N[C@H](C)c3ccccc3)cc3[nH]nc(c23)N1` [Example 138, 1-((R)-4-methyl-1,3,4,5-tetrahydropyrazolo[3,4,5-de][1,6]naphthyridin-7-yl)-3-((R)-1-phenylethyl)urea], the IC50 was 5.9 nM.

As to `C[C@H]1Cc2nc(NC(=O)N[C@H](C)c3ccccc3)cc3[nH]nc(c23)N1` [Example 139, 1-((S)-4-methyl-1,3,4,5-tetrahydropyrazolo[3,4,5-de][1,6]naphthyridin-7-yl)-3-((R)-1-phenylethyl)urea], the concentration for half-maximal inhibition (IC50) came out at 5.5 nM.

As to `CC(=O)N1CCc2nc(NC(=O)N[C@H](C)c3ccccc3)cc3[nH]nc1c23` [Example 140, (R)-1-(3-acetyl-1,3,4,5-tetrahydropyrazolo[3,4,5-de][1,6]naphthyridin-7-yl)-3-(1-phenylethyl)urea], the IC50 came to 111 nM.

Turning to `CCN1CCc2nc(NC(=O)N[C@H](C)c3ccccc3)cc3[nH]nc1c23` [Example 141, (R)-1-(3-ethyl-1,3,4,5-tetrahydropyrazolo[3,4,5-de][1,6]naphthyridin-7-yl)-3-(1-phenylethyl)urea], the half-maximal inhibitory concentration (IC50) worked out at 15.4 nM.

`CC(C)N1CCc2nc(NC(=O)N[C@H](C)c3ccccc3)cc3[nH]nc1c23` [Example 142, (R)-1-(3-isopropyl-1,3,4,5-tetrahydropyrazolo[3,4,5-de][1,6]naphthyridin-7-yl)-3-(1-phenylethyl)urea]: the IC50 was 1.2 nM.

As to `CNc1n[nH]c2cc(NC(=O)N[C@@H](c3ccccc3)[C@@H]3CCCO3)ncc12` [Example 144, 1-(3-(methylamino)-1H-pyrazolo[4,3-c]pyridin-6-yl)-3-((S)-phenyl((S)-tetrahydrofuran-2-yl)methyl)urea], the half-maximal inhibitory concentration (IC50) worked out at 2 nM.

In the case of `CNc1n[nH]c2cc(NC(=O)N[C@@H](c3ccccc3)[C@H]3CCCO3)ncc12` [Example 145, 1-(3-(methylamino)-1H-pyrazolo[4,3-c]pyridin-6-yl)-3-((S)-phenyl((R)-tetrahydrofuran-2-yl)methyl)urea], the IC50 is 2.1 nM.

Regarding `CNc1n[nH]c2cc(NC(=O)N[C@H](c3ccccc3)[C@@H]3CCCO3)ncc12` [Example 146, 1-(3-(methylamino)-1H-pyrazolo[4,3-c]pyridin-6-yl)-3-((R)-phenyl((S)-tetrahydrofuran-2-yl)methyl)urea], the half-inhibitory concentration (IC50) amounted to 115 nM.

As to `CNc1n[nH]c2cc(NC(=O)N[C@H](c3ccccc3)[C@H]3CCCO3)ncc12` [Example 147, 1-(3-(methylamino)-1H-pyrazolo[4,3-c]pyridin-6-yl)-3-((R)-phenyl((R)-tetrahydrofuran-2-yl)methyl)urea], the IC50 is 246 nM.

Turning to `CCNc1n[nH]c2cc(NC(=O)N[C@@H](c3ccccc3)[C@@H]3CCCO3)ncc12` [Example 148, 1-[3-(ethylamino)-1H-pyrazolo[4,3-c]pyridin-6-yl]-3-{(S)-phenyl[(2S)-tetrahydrofuran-2-yl]methyl}urea], the half-inhibitory concentration (IC50) was found to be 0.8 nM.

As for `CCNc1n[nH]c2cc(NC(=O)N[C@@H](c3ccccc3)[C@H]3CCCO3)ncc12` [Example 149, 1-[3-(ethylamino)-1H-pyrazolo[4,3-c]pyridin-6-yl]-3-{(S)-phenyl[(2R)-tetrahydrofuran-2-yl]methyl}urea], the half-maximal inhibitory concentration (IC50) is 0.6 nM.

For `CCNc1n[nH]c2cc(NC(=O)N[C@H](c3ccccc3)[C@H]3CCCO3)ncc12` [Example 150, 1-[3-(ethylamino)-1H-pyrazolo[4,3-c]pyridin-6-yl]-3-{(R)-phenyl[(2R)-tetrahydrofuran-2-yl]methyl}urea], the IC50 turned out to be 359 nM.

For the compound `CCNc1n[nH]c2cc(NC(=O)N[C@H](c3ccccc3)[C@@H]3CCCO3)ncc12` [Example 151, 1-[3-(ethylamino)-1H-pyrazolo[4,3-c]pyridin-6-yl]-3-{(R)-phenyl[(2S)-tetrahydrofuran-2-yl]methyl}urea], the IC50 came out at 315 nM.

On to `Nc1n[nH]c2cc(NC(=O)N[C@@H](c3ccccc3)[C@@H]3CCCO3)ncc12` [Example 152, 1-(3-amino-1H-pyrazolo[4,3-c]pyridin-6-yl)-3-{(S)-phenyl[(2S)-tetrahydrofuran-2-yl]methyl}urea], for which the 50% inhibitory concentration (IC50) was found to be 0.9 nM.

Regarding `Nc1n[nH]c2cc(NC(=O)N[C@@H](c3ccccc3)[C@H]3CCCO3)ncc12` [Example 153, 1-(3-amino-1H-pyrazolo[4,3-c]pyridin-6-yl)-3-{(S)-phenyl[(2R)-tetrahydrofuran-2-yl]methyl}urea], the IC50 was found to be 0.7 nM.

Take `Nc1n[nH]c2cc(NC(=O)N[C@H](c3ccccc3)[C@H]3CCCO3)ncc12` [Example 154, 1-(3-amino-1H-pyrazolo[4,3-c]pyridin-6-yl)-3-{(R)-phenyl[(2R)-tetrahydrofuran-2-yl]methyl}urea]: the IC50 worked out at 435 nM.

For orientation: IC50 means the concentration at which inhibition is half-maximal.
